How the values were obtained:
[1] = target: T1, Full length DGKα (D21-10BG, SignalChem) (Homo sapiens, UniProt P23743); assay: Biochemical DGK IC50 assay (ADP-Glo, lipid micelle substrate), DGKα; conditions: 7.5 nM enzyme, 140 μM ATP, 80 μM DAG, 1 hour preincubation, 1 hour reaction, room temperature, read-out: IC50s for DGKα
T1 construct: Full length DGKα (D21-10BG, SignalChem); purchased SignalChem D21-10BG
Outline: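 Full-length enzyme was assayed by ADP-Glo on DAG/PS lipid micelles at room temperature in HEPES/MgCl2/CaCl2 buffer with BSA, Na3VO4 and Tween-20, using a 1 h reaction and luminescence read-out.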

[2] = target: T2, Full length DGKζ (in-house protein M1-V929) (Homo sapiens, UniProt Q13574); assay: Biochemical DGK IC50 assay (ADP-Glo, lipid micelle substrate), DGKζ; conditions: 0.5 nM enzyme, 140 μM ATP, 80 μM DAG, 1 hour preincubation, 1 hour reaction, room temperature, read-out: IC50s for DGKζ
T2 construct: His (N); TEV cleavage site (N); made in house; host or cells: Sf9 insect cells (baculovirus, Bac-to-Bac)
Outline: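 In-house full-length human DGKζ, baculovirus-expressed in Sf9 cells, was assayed with a DAG/PS lipid micelle substrate at room temperature. Buffer was 50 mM HEPES, 10 mM MgCl2, 0.01% BSA, 0.1 mM Na3VO4, 0.005% Tween-20, 0.01 mM CaCl2, with final compound 1.55˜10000 nM or 23.3˜150000 nM.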

T2 sequence (Q13574 1-929 isoform Q13574-4): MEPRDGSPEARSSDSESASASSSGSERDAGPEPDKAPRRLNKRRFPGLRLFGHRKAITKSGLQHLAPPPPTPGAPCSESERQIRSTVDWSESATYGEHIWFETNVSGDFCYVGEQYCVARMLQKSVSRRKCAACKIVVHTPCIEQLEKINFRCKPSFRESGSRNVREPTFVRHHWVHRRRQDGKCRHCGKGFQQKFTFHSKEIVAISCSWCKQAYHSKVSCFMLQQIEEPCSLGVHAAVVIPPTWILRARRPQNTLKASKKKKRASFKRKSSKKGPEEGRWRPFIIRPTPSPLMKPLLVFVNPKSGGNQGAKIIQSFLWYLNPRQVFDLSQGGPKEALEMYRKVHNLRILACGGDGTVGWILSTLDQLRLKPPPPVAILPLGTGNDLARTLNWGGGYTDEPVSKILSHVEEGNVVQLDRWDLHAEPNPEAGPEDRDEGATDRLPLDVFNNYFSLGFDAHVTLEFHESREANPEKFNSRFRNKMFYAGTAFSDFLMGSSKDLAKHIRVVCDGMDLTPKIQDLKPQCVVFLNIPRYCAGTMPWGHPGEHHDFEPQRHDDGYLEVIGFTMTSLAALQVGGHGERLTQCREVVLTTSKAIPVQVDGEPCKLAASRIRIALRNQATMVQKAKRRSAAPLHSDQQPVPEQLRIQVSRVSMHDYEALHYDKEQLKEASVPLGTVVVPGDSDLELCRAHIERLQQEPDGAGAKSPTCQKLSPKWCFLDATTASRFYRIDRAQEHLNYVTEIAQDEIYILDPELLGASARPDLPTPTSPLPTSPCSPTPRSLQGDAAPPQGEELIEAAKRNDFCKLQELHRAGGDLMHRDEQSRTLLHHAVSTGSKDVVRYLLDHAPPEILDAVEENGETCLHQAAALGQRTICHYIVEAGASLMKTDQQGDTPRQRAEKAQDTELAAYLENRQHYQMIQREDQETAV
T1 sequence (P23743 whole entry): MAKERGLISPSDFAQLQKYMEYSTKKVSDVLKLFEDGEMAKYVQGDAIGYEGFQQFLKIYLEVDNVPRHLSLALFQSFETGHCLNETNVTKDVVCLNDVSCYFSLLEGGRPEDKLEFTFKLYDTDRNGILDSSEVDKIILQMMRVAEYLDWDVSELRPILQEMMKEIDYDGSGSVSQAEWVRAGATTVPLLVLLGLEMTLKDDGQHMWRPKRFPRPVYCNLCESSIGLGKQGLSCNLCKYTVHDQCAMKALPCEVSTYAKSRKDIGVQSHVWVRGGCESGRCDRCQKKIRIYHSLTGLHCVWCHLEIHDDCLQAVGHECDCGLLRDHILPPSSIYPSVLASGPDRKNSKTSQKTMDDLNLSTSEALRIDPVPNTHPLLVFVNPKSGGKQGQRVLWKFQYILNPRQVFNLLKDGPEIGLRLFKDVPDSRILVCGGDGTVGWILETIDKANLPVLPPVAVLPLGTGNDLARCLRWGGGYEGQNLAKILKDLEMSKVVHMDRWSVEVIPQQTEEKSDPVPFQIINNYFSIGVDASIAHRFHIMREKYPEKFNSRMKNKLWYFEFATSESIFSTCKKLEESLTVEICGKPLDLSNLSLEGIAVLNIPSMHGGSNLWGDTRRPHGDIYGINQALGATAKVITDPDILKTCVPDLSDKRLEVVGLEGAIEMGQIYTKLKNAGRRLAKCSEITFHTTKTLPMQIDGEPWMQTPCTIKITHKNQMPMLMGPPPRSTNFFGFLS

With `CC[C@H]1CN(C(C)c2ccc3nccnc3c2)[C@H](CC)CN1c1cc(=O)n(C)n2cc(COC)nc12` (single isomer, unassigned) [Compound A8b] the IC50 [1] was 5.08 µM and the IC50 [2] was 1.33 µM.
`CC[C@H]1CN(C(C)c2ccc3nc(C)sc3c2F)[C@H](C)CN1c1cc(=O)n(C)n2cc(CC#N)nc12` (single isomer, unassigned) [Compound A119b] showed an IC50 [1] of 0.34 µM and an IC50 [2] of 0.051 µM.
With `CC(c1ccc2c(c1)OC(C)(C)CO2)N1C[C@H](C)N(c2c(F)c(=O)n(C)n3cc(CC#N)nc23)C[C@H]1C` (mixture of isomers) [Compound A26, 2-(8-((2S,5R)-4-(1-(3,3-dimethyl-2,3-dihydrobenzo[b][1,4]dioxin-6-yl)ethyl)-2,5-dimethylpiperazin-1-yl)-7-fluoro-5-methyl-6-oxo-5,6-dihydroimidazo[1,2-b]pyridazin-2-yl)acetonitrile] the IC50 [1] was 3.09 µM and the IC50 [2] was 0.016 µM.
Compound `CC(c1ccc2c(c1)OC(C)(C)CO2)N1C[C@H](C)N(c2c(C#N)c(=O)n(C)n3cc(CC#N)nc23)C[C@H]1C` (mixture of isomers) [Compound A27, 2-(cyanomethyl)-8-((2S,5R)-4-(1-(3,3-dimethyl-2,3-dihydrobenzo[b][1,4]dioxin-6-yl)ethyl)-2,5-dimethylpiperazin-1-yl)-5-methyl-6-oxo-5,6-dihydroimidazo[1,2-b]pyridazine-7-carbonitrile] has an IC50 [1] of 0.858 µM and an IC50 [2] of 0.01 µM.
In the case of `CC#CCc1cn2c(n1)c(N1C[C@@H](CC)N(C(C)c3ccc4nc(C)sc4c3F)C[C@@H]1CC)cc(=O)n2C` (single isomer, unassigned) [Compound A116b], the IC50 [1] is reported as 0.708 µM and the IC50 [2] is reported as > 10 µM.
Compound `CC#CCc1cn2c(n1)c(N1C[C@@H](CC)N(C(C)c3ccc4ncsc4c3F)C[C@@H]1CC)cc(=O)n2C` (single isomer, unassigned) [Compound A117a] has an IC50 [1] of 0.022 µM and an IC50 [2] of 0.048 µM.
With `[2H]C([2H])([2H])n1c(=O)cc(N2C[C@@H](CC)N(C(C)c3ccc4nc(C)sc4c3)C[C@@H]2CC)c2nc(CC#N)cn21` (single isomer, unassigned) [Compound A94b] the IC50 [1] was 3.79 µM and the IC50 [2] was 1.15 µM.
`CC[C@@H]1CN(c2cc(=O)n(C)n3cc(COC)nc23)[C@@H](C)CN1C(C)c1ccc(C(F)(F)F)cc1F` (single isomer, unassigned) [Compound A16b] was tested, and the IC50 [1] was 8.46 µM and the IC50 [2] was > 10 µM.
`CC[C@H]1CN(C(C)c2ccc3nc(C4CC4)sc3n2)[C@H](CC)CN1c1cc(=O)n(C)n2cc(CC#N)nc12` (single isomer, unassigned) [Compound A109b] was tested, and the IC50 [1] was 0.113 µM and the IC50 [2] was 0.028 µM.
Compound `[2H]C([2H])([2H])C(c1ccc2nc(C)sc2c1)N1C[C@H](CC)N(c2cc(=O)n(C([2H])([2H])[2H])n3cc(CC#N)nc23)C[C@H]1CC` (single isomer, unassigned) [Compound A95a] has an IC50 [1] of 0.101 µM and an IC50 [2] of 0.027 µM.
For `CCC(c1ccc2nc(C)sc2n1)N1C[C@H](CC)N(c2cc(=O)n(C)n3cc(CC#N)nc23)C[C@H]1C` (single isomer, unassigned) [Compound A98b], the IC50 [1] was 0.039 µM and the IC50 [2] was 0.045 µM.
Work on `CC[C@@H]1CN(c2cc(=O)n(C)n3cc(CC#N)nc23)[C@@H](C)CN1C(C)c1ccc2ccsc2n1` (stereo partly drawn) [Compound A86, 2-(8-((2S,5R)-5-ethyl-2-methyl-4-(1-(thieno[2,3-b]pyridin-6-yl)ethyl)piperazin-1-yl)-5-methyl-6-oxo-5,6-dihydroimidazo[1,2-b]pyridazin-2-yl)acetonitrile] yielded an IC50 [1] of 0.018 µM and an IC50 [2] of 0.036 µM.
Compound `CC[C@H]1CN(C(CCOC)c2ccc3nc(C)sc3c2)[C@H](C)CN1c1cc(=O)n(C)n2cc(CC#N)nc12` (stereo partly drawn) [Compound A103, 2-(8-((2S,5R)-2-ethyl-4-(3-methoxy-1-(2-methylbenzo[d]thiazol-6-yl)propyl)-5-methylpiperazin-1-yl)-5-methyl-6-oxo-5,6-dihydroimidazo[1,2-b]pyridazin-2-yl)acetonitrile] has an IC50 [1] of 0.701 µM and an IC50 [2] of 0.138 µM.
`CC(c1ccc2nccnc2c1)N1C[C@H](C)N(c2cc(=O)n(C)n3cc(C[S+](C)[O-])nc23)C[C@H]1C` (stereo partly drawn) [Compound A10, 8-((2S,5R)-2,5-dimethyl-4-(1-(quinoxalin-6-yl)ethyl)piperazin-1-yl)-5-methyl-2-((methylsulfinyl)methyl)imidazo[1,2-b]pyridazin-6(5H)-one] was tested, and the IC50 [1] was > 10 µM and the IC50 [2] was > 10 µM.
With `CC[C@H]1CN(C(C)c2ccncc2)[C@H](CC)CN1c1cc(=O)n(C)n2cc(CC#N)nc12` (stereo partly drawn) [Compound A35, 2-(8-((2S,5R)-2,5-diethyl-4-(1-(pyridin-4-yl)ethyl)piperazin-1-yl)-5-methyl-6-oxo-5,6-dihydroimidazo[1,2-b]pyridazin-2-yl)acetonitrile] the IC50 [1] was 0.042 µM and the IC50 [2] was 3.12 µM.
`CC[C@H]1CN(C(C)c2ccc3ncsc3c2F)[C@H](CC)CN1c1cc(=O)n(C)n2cc(CC#N)nc12` (single isomer, unassigned) [Compound A62a] gave an IC50 [1] of 0.105 µM and an IC50 [2] of 0.0085 µM.
Compound `CC[C@@H]1CN(c2cc(=O)n(C)n3cc(CC#N)nc23)[C@@H](C)CN1C(C)c1ccc2nc(C)sc2c1F` (single isomer, unassigned) [Compound A63b] has an IC50 [1] of 5.78 µM and an IC50 [2] of 1.79 µM.
Compound `CC[C@H]1CN(C(C)c2ccc3nc(C)sc3c2)[C@H](CC)CN1c1cc(=O)n(C)n2cc(CC#N)nc12` (single isomer, unassigned) [Compound A56a] has an IC50 [1] of 0.087 µM and an IC50 [2] of 0.011 µM.
Work on `CC[C@H]1CN(C(C)c2ccc(C3CC3(F)F)nc2)[C@H](CC)CN1c1cc(=O)n(C)n2cc(CC#N)nc12` (single isomer, unassigned) [Compound A70b] yielded an IC50 [1] of 0.466 µM and an IC50 [2] of 0.886 µM.
For `[2H]C([2H])([2H])c1nc2ccc(C(C)N3C[C@H](CC)N(c4cc(=O)n(C([2H])([2H])[2H])n5cc(CC#N)nc45)C[C@H]3CC)cc2s1` (single isomer, unassigned) [Compound A97b], the IC50 [1] was 1.16 µM and the IC50 [2] was 1.15 µM.
`CC[C@H]1CN(C(C)c2ccc(C(F)(F)F)cc2)[C@H](CC)CN1c1cc(=O)n(C)n2cc(CC#N)nc12` (single isomer, unassigned) [Compound A91a] was tested, and the IC50 [1] was 0.155 µM and the IC50 [2] was 0.073 µM.
With `CC[C@H]1CN(C(C)c2ccc(C(F)(F)F)cc2F)[C@H](CC)CN1c1cc(=O)n(C)n2cc(CC#N)nc12` (single isomer, unassigned) [Compound A92b] the IC50 [1] was 0.803 µM and the IC50 [2] was 1.61 µM.
In the case of `CC[C@H]1CN(C(C)c2ccc(C(F)(F)F)cc2F)[C@H](CC)CN1c1cc(=O)n(C)n2cc(CC#N)nc12` (single isomer, unassigned) [Compound A92a], the IC50 [1] is reported as 0.087 µM and the IC50 [2] is reported as 0.052 µM.
`CC[C@@H]1CN(c2cc(=O)n(C)n3cc(CC#N)nc23)[C@@H](C)CN1C(C)c1ccc2nccnc2c1` (single isomer, unassigned) [Compound A13a] was tested, and the IC50 [1] was 0.966 µM and the IC50 [2] was 0.016 µM.
Work on `CC[C@H]1CN(C(C)c2ccc(C3CC3)nc2)[C@H](CC)CN1c1c(F)c(=O)n(C)n2cc(CC#N)nc12` (single isomer, unassigned) [Compound A73b] yielded an IC50 [1] of 0.832 µM and an IC50 [2] of 0.302 µM.
In the case of `CC[C@H]1CN(C(C)c2ccc(C3CC3)nc2)[C@H](CC)CN1c1cc(=O)n(C)n2cc(CC#N)nc12` (single isomer, unassigned) [Compound A37a], the IC50 [1] is reported as 0.044 µM and the IC50 [2] is reported as 0.02 µM.
Work on `CC[C@@H]1CN(c2cc(=O)n(C)n3cc(CC#N)nc23)[C@@H](C)CN1C(C)c1cc2sc(C)nc2cc1F` (single isomer, unassigned) [Compound A60a] yielded an IC50 [1] of 0.826 µM and an IC50 [2] of 0.189 µM.
For `CC(c1ccc2nccnc2c1)N1C[C@H](C)N(c2cc(=O)n(C)n3cc(CC#N)nc23)C[C@H]1C` (single isomer, unassigned) [Compound A1b], the IC50 [1] was 2.75 µM and the IC50 [2] was > 10 µM.
Compound `CC[C@H]1CN(C(C)c2ccc3cc(F)sc3n2)[C@H](CC)CN1c1cc(=O)n(C)n2cc(CC#N)nc12` (single isomer, unassigned) [Compound A105a] has an IC50 [1] of 0.195 µM and an IC50 [2] of 0.706 µM.
Work on `CC[C@H]1CN(C(C)c2ccc3nc(C)sc3n2)[C@H](CC)CN1c1c(C#N)c(=O)n(C)n2cc(CC#N)nc12` (single isomer, unassigned) [Compound A112b] yielded an IC50 [1] of 0.06 µM and an IC50 [2] of 0.118 µM.
